Measured values published in paper PMC12993615 (The journal of pain, 2024).

Assays:
FABP4 = biological target: T1, FABP4 (Homo sapiens, UniProt P15090); experiment: FABP4 binding, commercially available kit (Cayman Chemical); conditions: commercial kit
T1 construct: purchased Cayman Chemical
Experimental: Purified FABPs were incubated with 11-(dansylamino)undecanoic acid (DAUDA) (FABP3, FABP5) or 8-anilino-1-naphthalenesulfonic acid (ANS) (FABP7) in the presence or absence of FABP inhibitors (.01–200 μM) in the binding assay buffer. FABP4 binding was assessed using a commercially available kit (Cayman Chemical, Ann Arbor). In all cases, arachidonic acid (10 μM) was included to account for maximal probe displacement. Loss of fluorescence intensity was monitored with an F5 Filtermax Multi-Mode Microplate Reader (Molecular Devices, Sunnyvale) using the following excitation and emission wavelengths (DAUDA: ex./em.= 360/535 nm; ANS: ex./em. = 360/465 nm). Following background subtraction, the fluorescence intensity values were normalised and analyzed via a one-site binding model using the GraphPadPrism (version 9.2). Ki values were determined using the following equation: Ki= IC50/(1 + ([Probe]/Kd).

[1] = Oral bioavailability / pharmacokinetics in rats; type: in vivo; conditions: Sprague Dawley, rat, plasma, male rats
Experimental: Following intravenous and oral administration, blood samples (ca .2 mL) were collected from the jugular vein. For IV group, blood samples were collected at .083, .25, .5, 1, 2, 4, 6, 8, 24 hours post-dose. For PO group, blood samples were collected at .25, .5, 1, 2, 4, 6, 8, 24 hours post-dose. Blood samples were collected into tubes containing the anticoagulant K2EDTA. Plasma samples were prepared by centrifugation and dispensed into 1.5 mL matrix tubes and stored in a freezer (−75 ± 1°C) prior to analysis.

[2] = system: oxaliplatin-induced thermal hyperalgesia; experiment: 7-day treatment of established OIPN, cold plate latency; type: in vivo, male Sprague Dawley rats; conditions: 7 days dosing, vehicle close to HBL by Day 14
Experimental: Male Sprague Dawley rats (150–210 g) were housed in groups of 4 in intra-ventilated Perspex home cages. Humidity, temperature (21 ± 1 °C), and lighting (light-dark cycle of 12:12 hours) were controlled and maintained in the home cages, with food and water available ad libitum. Rats acclimatised to the home cages for at least 1 week. All experiments were carried out according to the Animals (Scientific Procedures) Act, 1986 (U.K. Government Home Office). The study was performed under the Home Office project licence number PP0847012. OIPN was established with a single dose of OXA (10 mg/kg, IP). […] Body weight was monitored throughout the study, and terminal plasma and whole brain samples were taken for bioanalysis. Thermal hyperalgesia was assessed using a cold plate (Bioseb, France) set at a fixed temperature of 15 °C. Latency to the first escape behaviour from the plate was measured indicating discomfort to the thermal stimulation. Escape behaviours typically consist of paw licking, jumping, or withdrawal. The maximal threshold of latency was set at 150 seconds. To acquire baseline readings, pain behaviour was assessed on 3 consecutive days (Days −3, −2, −1). The mean of Day −2 and Day −1 was considered the healthy baseline (HBL) prior to OIPN induction. […] NPB expressed as a percentage change from HBL was calculated as follows (HBL-NPB)/HBL*100. […]

[3] = system: oxaliplatin-induced mechanical allodynia; experiment: Prevention of OIPN, paw withdrawal threshold; type: in vivo, male Sprague Dawley rats
Experimental: (§1) Male Sprague Dawley rats (150–210 g) were housed in groups of 4 in intra-ventilated Perspex home cages. Humidity, temperature (21 ± 1 °C), and lighting (light-dark cycle of 12:12 hours) were controlled and maintained in the home cages, with food and water available ad libitum. Rats acclimatised to the home cages for at least 1 week. All experiments were carried out according to the Animals (Scientific Procedures) Act, 1986 (U.K. Government Home Office). The study was performed under the Home Office project licence number PP0847012. OIPN was established with a single dose of OXA (10 mg/kg, IP).
(§2) Pain measurements were made on Days 5/6 (when neuropathy has normally developed) and at the end of the study. […] Terminal plasma samples were taken for bioanalysis and proteomics (Somalogic). Brain regions involved in pain processing, that is, prefrontal cortex (PFC), periaqueductal grey (PAG), whole spinal cords (SC), and L4-L6 dorsal root ganglia, were collected for lipidomic and genomic (Genewiz, China) analyses.
Tactile allodynia (primary outcome measure) was assessed using paw withdrawal threshold (PWT), a measure of pain sensitivity. PWT was evaluated using calibrated von-Frey monofilaments (Touch-Test Sensory Evaluator; Scientific Marketing Associates) applied to the plantar surface of the left hind paw. PWT was determined by increasing and decreasing stimulus intensity and estimated using Dixon’s up-down method.[38],[39]
To acquire baseline readings, pain behaviour was assessed on 3 consecutive days (Days −3, −2, −1). The mean of Day −2 and Day −1 was considered the healthy baseline (HBL) prior to OIPN induction. On Days 5 and 6 after OXA injection, thresholds were reassessed. The mean of Days 5 and 6 was considered the neuropathic baseline (NPB). Animals were then ranked and randomised (based on a Latin square design) to treatment groups according to the percentage change of the mean thresholds observed in the NPB compared to the HBL. NPB expressed as a percentage change from HBL was calculated as follows (HBL-NPB)/HBL*100. All behavioural assessment was done by an experimenter blinded to the identity of the treatment. Separate people were responsible for dosing and assessment/data analysis.

[4] = system: oxaliplatin-induced thermal hyperalgesia; experiment: Prevention of OIPN, cold plate latency; type: in vivo, male Sprague Dawley rats; conditions: 25 mg/kg BID, P < .001
Experimental: as §1
Pain measurements were made on Days 5/6 (when neuropathy has normally developed) and at the end of the study. […] Terminal plasma samples were taken for bioanalysis and proteomics (Somalogic). […]
Thermal hyperalgesia was assessed using a cold plate (Bioseb, France) set at a fixed temperature of 15 °C. Latency to the first escape behaviour from the plate was measured indicating discomfort to the thermal stimulation. […]
To acquire baseline readings, pain behaviour was assessed on 3 consecutive days (Days −3, −2, −1). […] NPB expressed as a percentage change from HBL was calculated as follows (HBL-NPB)/HBL*100. […]

[5] = Prevention of OIPN, body weight; type: in vivo, male Sprague Dawley rats; conditions: 10 mg/kg BID, P < .05
Source text: as §2

[6] = system: paclitaxel-induced peripheral neuropathy; conditions: male and female rats, similar efficacy; cited from earlier work

T1 sequence (P15090 whole entry, species assumed): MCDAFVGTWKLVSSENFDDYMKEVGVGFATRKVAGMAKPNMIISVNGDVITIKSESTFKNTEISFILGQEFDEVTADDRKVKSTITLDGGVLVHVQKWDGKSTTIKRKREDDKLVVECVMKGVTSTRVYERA

Work on `COc1ccccc1[C@@H]1[C@H](C(=O)O)[C@@H](c2ccccc2OC)[C@H]1C(=O)OC1Cc2ccccc2C1` [ART26.12, (+)–3-Indan-2-yloxycarbonyl-2,4-bis(2-methoxyphenyl)cyclobutanecarboxylic acid] yielded a Ki (FABP4) of over 100 µM, a clearance ([1]; IV 2 mg/kg) of 14 mL/min/kg and a half-life ([1]; IV 2 mg/kg) of 2.6 h. For the same molecule, the Vd ([1]; IV 2 mg/kg, read-out: volume of distribution) was 1.3 L/kg, the Tmax ([1]; PO 10 mg/kg) was about 0.5 h and the Tmax ([1]; PO 300 mg/kg) was about 6.6 h. It also gave a bioavailability ([1]; PO 300 mg/kg) of 163%, a half-life ([1]; PO 300 mg/kg) of 3.8 h and a bioavailability ([1]; single oral dose 10 mg/kg) of 73%. For the same molecule, the cold plate latency [2] was “no effect on cold plate latency”, the “PWT on Day 5/6 compared to HBL” value ([3]; 10 mg/kg BID, P < .001) was “significantly lower PWTs” and the “PWT on Day 5/6 compared to HBL” value ([3]; 25 mg/kg BID, P < .05) was “significantly lower PWTs”. For the same molecule, the “PWT on Day 14 compared to HBL” value ([3]; ART26.12 10 or 25 mg/kg BID groups) was “neither the ART26.12 nor the pregabalin groups showed significant allodynia”, the “cold plate latencies on Day 14 versus vehicle” value [4] was “significantly higher cold plate latencies than the vehicle group” and the “body weight on Day 5 versus Day 0” value [5] was “significantly higher body weight than Day 0”. For the same molecule, the “effect on paclitaxel-induced peripheral neuropathy” value [6] was “prevents paclitaxel-induced peripheral neuropathy”.
